Measurements published in US20240251795A1, “METHOD FOR C[…] RESISTANT PESTS & COMPOUNDS THEREFOR” (priority 2021, published 2024).
Values after ≈ are worked out from the molar mass of the structure shown.

How the values were obtained:
[1] = test system: multi-resistant Plutella xylostella larvae having the G4946E resistance mutation (strain R1); test: Resistant Plutella xylostella R1 (Diamond Back Moth) Larvicide L3, Feeding/Contact; assay type: in vivo; conditions: for EC80: Plutella xylostella, in Brassica rapa, 96 h, read-out: Rate providing at least 80% control of the resistant strain of Plutella xylostella R1
Procedure: Resistant Plutella xylostella R1 (Diamond Back Moth) Larvicide L3, Feeding/Contact
Chinese cabbage plants were sprayed with diluted test solutions in an application chamber. Cut off leaves were placed into petri dishes with wetted filter paper and infested 1 day after application with 10 L3 multi-resistant Plutella xylostella larvae having the G4946E resistance mutation. Samples were assessed 4 days after infestation for mortality and growth regulation. CTPR was used as standard and a resistance factor of 146 was obtained for this strain.
Plutella xylostella resistant strain R1 originally collected from Taiwan in 2012 that carries the RyR mutation G4946E conferring resistance to diamides. The strain is reared on cabbage plants (Brassica aleracea) and selected approximately every two weeks with chlorantraniliprole.

[2] = test system: Plutella xylostella resistant strain R4 (RyR mutation G4946E); test: Resistant Plutella xylostella R4 (Diamond back moth) larvicide L1, feeding/contact; assay type: in vivo; conditions: for Rate providing at least 80% control of the resistant strain of Plutella xylostella R4: L1, artificial diet in 24-well plates, around 30 eggs, mortality vs untreated assessed 8 days after infestation
Procedure: Resistant Plutella xylostella R^4 (Diamond back moth) larvicide L1, feeding/contact 24-well microtiter plates with artificial diet were treated with aqueous test solutions prepared from 10′000 ppm DMSO stock solutions by pipetting. After drying, around 30 Plutella eggs were pipetted through a plastic stencil onto a gel blotting paper and the plate was closed with it. The samples were assessed for mortality in comparison to untreated samples 8 days after infestation.
CTPR was used as standard and a resistance factor of 242 was obtained for this strain
Plutella xylostella resistant strain R4 originated in the lab in 2021 from crossing the R1 strain with a lab-reared susceptible P. xylostella strain (SUS). R4 can be reared and tested on artificial diet and also carries the RyR mutation G4946E conferring resistance to diamides. The strain is selected approximately every two weeks with chlorantraniliprole.

Row | Structure (SMILES) | EC80 [1] [µg/mL] | melting point [°C] | further results
1 | CNC(=O)c1cc2cc(Br)ccc2c(Cl)c1NC(=O)c1cc(Cl)nn1-c1ncccc1Cl | > 200 | – | –
2 | O=C(NC1CC1)c1cc2cc(Br)ccc2c(Cl)c1NC(=O)c1cc(Br)nn1-c1ncccc1Cl | 200 (≈ 320 µM) | – | –
3 | CC(C)NC(=O)c1cc2cc(Br)ccc2c(Cl)c1NC(=O)c1cc(Br)nn1-c1ncccc1Cl | 200 (≈ 319 µM) | – | –
4 | CNC(=O)c1cc2cc(Br)ccc2c(Br)c1NC(=O)c1cc(OCC(F)(F)F)nn1-c1ncccc1Cl | 12.5 (≈ 18.9 µM) | – | –
5 | NC(=O)c1cc2cc(Cl)ccc2c(Cl)c1NC(=O)c1cc(Br)nn1-c1ncccc1Cl [P.25, 5-bromo-N-(3-carbamoyl-1,6-dichloro-2-naphthyl)-2-(3-chloro-2-pyridyl)pyrazole-3-carboxamide] | 50 (≈ 92.7 µM) | – | –
6 | CNC(=O)c1cc2cc(Br)ccc2c(Br)c1NC(=O)c1cc(Br)nn1-c1ncccc1Cl | > 200 | – | –
7 | NC(=O)c1cc2cc(Br)ccc2c(Cl)c1NC(=O)c1cc(Cl)nn1-c1ncccc1Cl [P.26, N-(6-bromo-3-carbamoyl-1-chloro-2-naphthyl)-5-chloro-2-(3-chloro-2-pyridyl)pyrazole-3-carboxamide] | 50 (≈ 92.7 µM) | – | –
8 | CNC(=O)c1cc2cc(Br)ccc2c(Cl)c1NC(=O)c1cc(C(F)(F)F)nn1-c1ncccc1Cl | > 200 | – | –
9 | NC(=O)c1cc2ccccc2c(Cl)c1NC(=O)c1cc(OC(F)F)nn1-c1ncccc1Cl [P.20, N-(3-carbamoyl-1-chloro-2-naphthyl)-2-(3-chloro-2-pyridyl)-5-(difluoromethoxy)pyrazole-3-carboxamide] | – | 143 to 145 | –
10 | Cc1c(NC(=O)c2cc(C(F)F)nn2-c2ncccc2Cl)c(C(N)=O)cc2nc(C(F)(F)F)ccc12 [P.7, 6-[[2-(3-chloro-2-pyridyl)-5-(difluoromethyl)pyrazole-3-carbonyl]amino]-5-methyl-2-(trifluoromethyl)quinoline-7-carboxamide] | 12.5 (≈ 23.8 µM) | – | –
11 | NC(=O)c1cc2ccccc2c(Cl)c1NC(=O)c1cc(OCC(F)(F)F)nn1-c1ncccc1Cl [P.11, N-(3-carbamoyl-1-chloro-2-naphthyl)-2-(3-chloro-2-pyridyl)-5-(2,2,2-trifluoroethoxy)pyrazole-3-carboxamide] | – | 158 to 160 | –
12 | NC(=O)c1cc2cc(Br)ccc2c(Cl)c1NC(=O)c1cc(Br)nn1-c1ncccc1Cl [P.27, 5-bromo-N-(6-bromo-3-carbamoyl-1-chloro-2-naphthyl)-2-(3-chloro-2-pyridyl)pyrazole-3-carboxamide] | 50 (≈ 85.6 µM) | – | –
13 | CC(C)NC(=O)c1cc2nn(C)cc2c(Cl)c1NC(=O)c1cc(C(F)(F)F)nn1-c1ncccc1Cl | > 50 | – | Rate providing at least 80% control of the resistant strain of Plutella xylostella R4 [2]: >50 ppm
14 | Cc1c(NC(=O)c2cc(Br)nn2-c2ncccc2Cl)c(C(N)=O)cc2nn(C)cc12 | – | 242 to 244 | –
15 | NC(=O)c1cc2cc(Br)ccc2c(Br)c1NC(=O)c1cc(Cl)nn1-c1ncccc1Cl [P.31, 5-chloro-2-(3-chloro-2-pyridyl)-N-(1,6-dibromo-3-carbamoyl-2-naphthyl)pyrazole-3-carboxamide] | – | 170 to 172 | –
16 | NC(=O)c1cc2cc(Br)ccc2c(Br)c1NC(=O)c1cc(OCC(F)(F)F)nn1-c1ncccc1Cl [P.1, 2-(3-chloro-2-pyridyl)-N-(1,6-dibromo-3-carbamoyl-2-naphthyl)-5-(2,2,2-trifluoroethoxy)pyrazole-3-carboxamide] | 3 (≈ 4.63 µM) | – | –
17 | NC(=O)c1cc2cc(Br)ccc2c(Br)c1NC(=O)c1cc(Br)nn1-c1ncccc1Cl [P.8, 5-bromo-2-(3-chloro-2-pyridyl)-N-(1,6-dibromo-3-carbamoyl-2-naphthyl)pyrazole-3-carboxamide] | 50 (≈ 79.6 µM) | – | –
18 | NC(=O)c1cc2cc(Br)ccc2c(Cl)c1NC(=O)c1cc(C(F)(F)F)nn1-c1ncccc1Cl [P.28, N-(6-bromo-3-carbamoyl-1-chloro-2-naphthyl)-2-(3-chloro-2-pyridyl)-5-(trifluoromethyl)pyrazole-3-carboxamide] | 50 (≈ 87.2 µM) | – | –

Row | Structure (SMILES) | EC80 [1] [µg/mL] | melting point [°C] | further results
19 | CNC(=O)c1cc2cc(Br)ccc2c(Br)c1NC(=O)c1cc(C(F)(F)F)nn1-c1ncccc1Cl | 50 (≈ 79.2 µM) | – | –
20 | CNC(=O)c1cc(Cl)cc(C)c1NC(=O)c1cc(Br)nn1-c1ncccc1Cl [CTPR, chlorantraniliprole, reference compound] | – | – | resistance factor ([1]; strain R1, CTPR used as standard): 146; resistance factor ([2]; strain R4, CTPR used as standard): 242
21 | NC(=O)c1cc2cc(Br)ccc2c(Cl)c1NC(=O)c1cc(Cn2nnc(C(F)(F)F)n2)nn1-c1ncccc1Cl | – | 190 to 226 | –
22 | COc1cc(C(=O)Nc2c(C(N)=O)cc3ccccc3c2Cl)n(-c2ncccc2Cl)n1 [P.13, N-(3-carbamoyl-1-chloro-2-naphthyl)-2-(3-chloro-2-pyridyl)-5-methoxy-pyrazole-3-carboxamide] | – | 154 to 156 | –
23 | Cc1nc2cc(C(N)=O)c(NC(=O)c3cc(Br)nn3-c3ncccc3Cl)c(C)c2s1 [P.45, 6-[[5-bromo-2-(3-chloro-2-pyridyl)pyrazole-3-carbonyl]amino]-2,7-dimethyl-1,3-benzothiazole-5-carboxamide] | – | 175 to 180 | –
24 | CNC(=O)c1cc2nc(C(F)(F)F)ccc2c(C)c1NC(=O)c1cc(C(F)F)nn1-c1ncccc1Cl | 200 (≈ 371 µM) | – | –
25 | NC(=O)c1cc2ccccc2c(Cl)c1NC(=O)c1cc(OCC(F)(F)C(F)(F)F)nn1-c1ncccc1Cl | – | 264 to 266 | –
26 | Cc1c(NC(=O)c2cc(C(F)(F)F)nn2-c2ncccc2Cl)c(C(N)=O)cc2c1OC(F)(F)O2 | – | 223 to 225 | –
27 | Cc1nc2cc(C(N)=O)c(NC(=O)c3cc(Br)nn3-c3ncccc3Cl)c(C)c2o1 [P.46, 6-[[5-bromo-2-(3-chloro-2-pyridyl)pyrazole-3-carbonyl]amino]-2,7-dimethyl-1,3-benzoxazole-5-carboxamide] | – | – | Rate providing at least 80% control of the resistant strain of Plutella xylostella R4 [2]: 12.5 ppm
28 | NC(=O)c1cc2ccccc2c(Cl)c1NC(=O)c1cc(C(F)(F)F)nn1-c1ncccc1Cl [P.10, N-(3-carbamoyl-1-chloro-2-naphthyl)-2-(3-chloro-2-pyridyl)-5-(trifluoromethyl)pyrazole-3-carboxamide] | – | 155 to 157 | –
29 | Cn1cc2c(Cl)c(NC(=O)c3cc(C(F)(F)F)nn3-c3ncccc3Cl)c(C(N)=O)cc2n1 [P.36, 4-chloro-5-[[2-(3-chloro-2-pyridyl)-5-(trifluoromethyl)pyrazole-3-carbonyl]amino]-2-methyl-indazole-6-carboxamide] | 3 (≈ 6.02 µM) | – | Rate providing at least 80% control of the resistant strain of Plutella xylostella R4 [2]: 12.5 ppm
30 | Cc1c(NC(=O)c2cc(OCC(F)(F)F)nn2-c2ncccc2Cl)c(C(N)=O)cc2ncsc12 [P.44, 6-[[2-(3-chloro-2-pyridyl)-5-(2,2,2-trifluoroethoxy)pyrazole-3-carbonyl]amino]-7-methyl-1,3-benzothiazole-5-carboxamide] | – | 135 to 140 | –
31 | CNC(=O)c1cc2nc(C)oc2c(C)c1NC(=O)c1cc(Br)nn1-c1ncccc1Cl | – | – | Rate providing at least 80% control of the resistant strain of Plutella xylostella R4 [2]: >50 ppm
32 | CNC(=O)c1cc2cc(Cl)ccc2c(Cl)c1NC(=O)c1cc(Br)nn1-c1ncccc1Cl | 200 (≈ 361 µM) | – | –
33 | NC(=O)c1cc2cc(Br)ccc2c(Br)c1NC(=O)c1cc(C(F)(F)F)nn1-c1ncccc1Cl [P.4, 2-(3-chloro-2-pyridyl)-N-(1,6-dibromo-3-carbamoyl-2-naphthyl)-5-(trifluoromethyl)pyrazole-3-carboxamide] | 12.5 (≈ 20.2 µM) | – | –
34 | Cc1ccc2c(C)c(NC(=O)c3cc(C(F)(F)F)nn3-c3ncccc3Cl)c(C(N)=O)cc2c1 [P.32, N-(3-carbamoyl-1,6-dimethyl-2-naphthyl)-2-(3-chloro-2-pyridyl)-5-(trifluoromethyl)pyrazole-3-carboxamide] | – | 216 to 218 | –
35 | NC(=O)c1cc2cc(Br)ccc2c(Cl)c1NC(=O)c1cc(Cn2ncc3c(Cl)cccc32)nn1-c1ncccc1Cl | – | 149 to 157 | –
36 | NC(=O)c1nc2ccccc2c(Cl)c1NC(=O)c1cc(Br)nn1-c1ncccc1Cl [P.18, 3-[[5-bromo-2-(3-chloro-2-pyridyl)pyrazole-3-carbonyl]amino]-4-chloro-quinoline-2-carboxamide] | – | 204 to 206 | –
